# Values joined by “and” are separate entries in the source; they are usually repeats but may differ in a detail not shown here. Equal entries are not always repeated.
# What was measured:
# TSST-1 = format: cell-based, S. aureus; parameters: ng TSST-1 per CFU: scale not given here
# S. aureus (MN8) = format: cell-based
compound,measurement,setting,value
CC(=O)/C=C/C1=C(C)CCCC1(C)C [Beta-ionone],Reduction of Toxin %,TSST-1,100%
same,ng TSST-1 per OD Unit,TSST-1,none
same,CFU/mL,S. aureus (MN8),1.8E+08 CFU/mL
same,Optical Density,S. aureus (MN8),0.688
"CC1CCC(C(C)C)C(O)C1 (centres unmarked) [Menthol, menthol]",effect on the growth of S. aureus cells,S. aureus (MN8),"minimal, if any, effect"
myreth-3-myristate [Cetiol],ng TSST-1 per CFU,TSST-1,371 and 196 and 200
same,ng TSST-1 per mL,TSST-1,1556 ng TSST-1 per mL and 1147 ng TSST-1 per mL and 989 ng TSST-1 per mL
same,CFU/mL × 10^8,S. aureus (MN8),4.2 CFU/mL × 10^8 and 5.9 CFU/mL × 10^8 and 5.0 CFU/mL × 10^8
